Source: patent US7148250B2, “Indoles as NAALADase inhibitors” (Guilford Pharmaceuticals Inc., priority 2001, dated 2006)

Columns and labels:
[1] = tested on: Brown Norway rats with unilateral optic nerve transection; assay: Optic nerve transection, optic nerve fiber counting; assay type: in vivo, Rattus norvegicus; conditions: for FIBER NUMBER ± SEM / PERCENT DIFFERENCE ± SEM in fiber number between transected and normal eye: 10 mg/kg i.p. daily
Experimental: All experiments complied with the Association for Research in Vision and Ophthalmology Statement for the Use of Animals in Ophthalmic and Vision Research. 82 male Brown Norway rats (Rattus norvegicus), each weighing approximately 250 gm, were treated using procedures approved by the Animal Care Committee of the Johns Hopkins University School of Medicine. The rats were housed with a 12 hour light/12 hour dark cycle and fed ad libitum.
OPTIC NERVE TRANSECTION: The optic nerve was transected unilaterally in 26 rats under intraperitoneal pentobarbital anesthesia. The conjunctiva was opened with scissors and the optic nerve exposed by traction on extraocular muscles. The transection was performed with microscissors 5 mm posterior to the globe, with specific attention to avoidance of injury to major ocular blood vessels. Immediately after transection, the retina was examined ophthalmoscopically to assure that the retinal arterial blood supply was not disrupted. The conjunctiva was closed with absorbable suture and the eye dressed with antibiotic ointment. Beginning on the day of transection, the rats were treated daily with intraperitoneal injections of either a vehicle (9 rats with 50 mM HEPES-buffered saline) or a NAALADase inhibitor (8 rats with 10 mg/kg of Compound A and 9 rats with 10 mg/kg of Compound B). 5 saline treated rats, 3 Compound A treated rats and 4 Compound B treated rats were sacrificed at 2 weeks, and the remaining rats at 4 weeks, after transection.
OPTIC NERVE COUNTING: The rats were sacrificed by exsanguination under deep pentobarbital anesthesia. They were perfused through the heart with 2% paraformaldehyde/2% glutaraldehyde in 0.1 M phosphate buffer, pH 7.2, and the eyes with attached optic nerves were removed. A cross-section of the optic nerve from both experimental (glaucoma or transection) and control eyes was removed 1.5 mm posterior to the globe, 1 mm in thickness, and post-fixed in 2% osmium tetroxide in buffer. These were processed into epoxy resin, sectioned at 1 micron and stained with toluidine blue.
The area of the optic nerve cross-section was measured by outlining its outer border at 10× magnification on an image analysis system (Universal Imaging Corp., Westchester, Pa.) with Synsys digital camera and Metamorph software. Three area measurements were taken and the mean value was determined. To measure the density and fiber diameter distributions, images were captured with a 100× phase contrast objective from 10 different areas of each nerve. These were edited to eliminate non-neural objects and the size of each axon internal to the myelin sheath (its minimum diameter) and the density of axons/square mm were calculated for each image and nerve. The mean density was multiplied by total nerve area to yield fiber number for each nerve. The total fiber number in glaucoma or transection nerves was compared to the normal, fellow eye of each rat to yield a percent loss value. The number of axons counted among the 10 images was an approximately 20% sample of the 80–90,000 axons in normal rat nerves. The person measuring axon number was masked to the protocol conducted on the nerves.

BB/W rats = assay: Retinal disorders in diabetic BB/W rats (BM thickness, E/P ratio); assay type: in vivo, rat; conditions: for BM THICKNESS ± SD (n = 3) / E/P RATIO (n = 8–10): diabetic BB/W rats
Experimental: Four (4) groups of rats received daily insulin injections to maintain their glucose levels at about 350 mg/dl. Starting at the onset of hyperglycemia, NAALADase inhibitor 2-(3-sulfanylpropyl)-pentanedioic acid was administered daily for 6 months to one group of BB/W rats at a dose of 10 mg/kg and to a second group of BB/W rats at a dose of 30 mg/kg. A third group of BB/W rats and a fourth group of non-diabetic rats received daily vehicle treatment (50 mM Hepes buffered saline).
After six (6) months of NAALADase inhibitor or vehicle treatment, the rats were sacrificed and their eyes were removed. From each rat, one eye was processed for elastase digest while the other eye was processed for transmission electron microscopy (TEM) and basement membrane (BM) thickness.
Retinal digests were prepared using elastase on retinas as described in Layer, N., Invest Ophthalmol Vis Sci (1993) 34:2097. Eyes were removed from recently killed BB/W rats (n=25) and age-matched […] controls (n=10). The retinas (n=35) were fixed at room temperature by immersing the whole eye (slit at limbus) in 4% (w/v) paraformaldehyde in 50 mmol/L Na—K phosphate buffer with 8% sucrose. The fixed retinas were rinsed in deionized water and were incubated for 3 minutes in a 37° C. agitating water bath in 40 units/mL elastase in Na—K phosphate buffer with 150 mmol/L NaCl and 5 mmol/L ethylenediamine tetraacetic acid (EDTA), pH 6.5. The tissues were washed overnight in 100 mmol/L Tris-HCL (pH 8.5) and then transferred to deionized water for removal of the loosened vitreous and digested neural elements by gentle agitation using the sides of closed forceps and the sides and ends of very fine brushes. After all loose tissues were removed, the retinas were incubated once more in fresh enzyme for 3 minutes and then subjected to a second overnight wash at room temperature in Tns-HCl buffer. On the third day, the retinas were again transferred to deionized water for additional removal of digested neural elements. The vascular network that was completely free of nonvascular elements was mounted flat by flotation in Ca^2+ and Mg^2+ free Dulbecco's PBS on siliconized slides (#S1308, Oncor, Gaithersburg, Md.). After air drying in a dust free environment, the mounts of the retinal microvasculature were stained using periodic acid Schiff reaction and hematoxylin counterstaining, as described in Luna, L., ed. Manual of Histologic Staining Methods of the Armed Forces Institute of Pathology (1968) McGraw-Hill, New York, N.Y. The preparations were then examined by light microscopy and photographed.
The stained and intact retinal whole mounts were coded and subsequent counting was done masked, as described in Cuthbertson, R., Invest Ophthalmol Vis Sci. (1986) 27:1659–1664).
Ten fields at ×100 magnification were counted for endothelial and pericyte cells using previously described morphologic criteria (see Kuwabara, T., Arch Ophthalmol. (1960) 64:904–911). In every sample, at least 200 cells were counted from the mid zone of the retina. Mean values for endothelial cell/pericyte (E/P) ratios were initially calculated in 3 retinas from each of the four (4) groups of rats.
Each eye was fixed in 4% glutaraldehyde and dissected free of sclera and choroids, then trimmed and postfixed in 1% osmium tetroxide. After dehydration and embedding, thin sections were stained with uranyl acetate and lead citrate. Initially, BM thickness of retinal capillaries from 3 non-diabetic rats receiving vehicle, 3 diabetic animals receiving 10 mg/kg 2-(3-sulfanylpropyl)-pentanedioic acid, and 3 diabetic rats receiving 30 mg/kg 2-(3-sulfanylpropyl)-pentanedioic acid were compared with 3 diabetic rats receiving a vehicle. At least 10 capillaries per eye from the inner nuclear and plexiform layers were photographed at a magnification of 10,000×. Exact magnification was determined for each set of negatives with a 28,800 line/inch calibration grid. Negatives were enlarged 3×. […]

[2] = 2 weeks survival after transection
[3] = 4 weeks survival after transection
[4] = 10 mg/kg daily for 6 months, 10 mg/kg
[5] = 10 mg/kg daily for 6 months, listed as NAALADASE INHIBITOR, 10 mg/kg
[6] = 30 mg/kg daily for 6 months, 30 mg/kg
[7] = 30 mg/kg daily for 6 months, listed as NAAALADASE INHIBITOR, 30 mg/kg
[8] = high dose (30 mg/kg), six months
[9] = low dose (10 mg/kg), six months

O=C(O)CCC(CCCS)C(=O)O (centres unmarked) [Compound B, 2-(3-sulfanylpropyl)-pentanedioic acid]
remaining axons relative to saline-treated rats ([1]; 2 weeks after transection): twice
FIBER NUMBER ± SEM [1, 2]: 19,550 ± 5,091
PERCENT DIFFERENCE ± SEM in fiber number between transected and normal eye [1, 2]: 75.3 ± 6.6%
FIBER NUMBER ± SEM [1, 3]: 5,162 ± 2,509
PERCENT DIFFERENCE ± SEM in fiber number between transected and normal eye [1, 3]: 93.4 ± 3.1%
BM THICKNESS ± SD (n = 3) (BB/W rats; [4]): 82.3±4.07 nm
E/P RATIO (n = 8–10) (BB/W rats; [4]): 2.4±0.5
BM THICKNESS ± SD (n = 3) (BB/W rats; [5]): 82.3 ± 4.07 nm
E/P RATIO (n = 8–10) (BB/W rats; [5]): 2.4 ± 0.5
BM THICKNESS ± SD (n = 3) (BB/W rats; [6]): 71.7±4.07 nm
E/P RATIO (n = 8–10) (BB/W rats; [6]): 1.9±0.4
BM THICKNESS ± SD (n = 3) (BB/W rats; [7]): 71.7 ± 4.07 nm
E/P RATIO (n = 8–10) (BB/W rats; [7]): 1.9 ± 0.4
reduction in BM thickness versus diabetic vehicle (BB/W rats; [8]): 29.0%
reduction of E/P ratios versus diabetic vehicle (BB/W rats; [8]): 37%
decrease in BM thickness versus diabetic vehicle (BB/W rats; [9]): 18.5%
reduction of E/P ratios versus diabetic vehicle (BB/W rats; [9]): 20%
